The source of these data is patent US20230102924A1, “Methods of Treating Cancer Using Checkpoint Inhibitors in Combination with Purine Cleaving Enzymes” (priority 2020, published 2023).

Entries after “also recorded” stand apart in the source; their conditions may differ.

Assay [1] deals with EMT-6 tumors that express E. coli PNP. Nature of the assay: EMT-6 murine breast tumors expressing E. coli PNP (left flank) in mice, fludarabine phosphate plus or minus anti-CTLA4-9H10. The assay is classed as in vivo, female BALB/c mice. The method, then:
(§1) In order to evaluate efficacy, the parental EMT-6-EMU cell line and the EMT-6-PNP-EMU transduced cell line were evaluated. The EMT-6-PNP-EMU transduced cell line and the parental EMT-6-EMU cell line were implanted as shown below in each flank with or without dosing with fludarabine phosphate and/or anti-CTLA-4 antibody using female BALB/c mice.
(§2) Mice were implanted with EMT-6 murine tumors on both the right and left flanks. In groups 1 through 6 the right flanks were implanted with parental (non-PNP) tumors and the left flanks were implanted with tumors expressing E. coli PNP. In groups 7 through 10, both the right and left flanks were injected with parental tumors.

The test system of assay [2] is EMT-6 tumors that do not express E. coli PNP. Nature of the assay: Parental EMT-6 murine breast tumors (non-PNP) in mice, fludarabine phosphate plus or minus anti-CTLA4-9H10. The note with it: for abscopal effect on a non-PNP tumor of a contralateral PNP tumor regressing due to F-araAMP: F-araAMP 90 mg/kg with anti-CTLA4-9H10. The assay is classed as in vivo, female BALB/c mice. As to the method:
as §1, §2

The mark [3] stands for this setting: FIG. 3 and 5, day 15, right flank non-PNP tumors, PNP tumor contralaterally.

Turning to `Nc1nc(F)nc2c1ncn2[C@@H]1O[C@H](COP(=O)(O)O)[C@@H](O)[C@@H]1O` [fludarabine phosphate, 2-fluoro-9-(5-O-phosphono-β-D-arabinofuranosyl)-9H-purin-6-amine], the “effect on EMT-6 breast tumors that express E. coli PNP” value in assay [1] (FIG. 1, groups 1, 2, 4, 5, F-araAMP 75 mg/kg plus or minus anti-CTLA4-9H10, left flank tumors) is recorded as “effective”. In assay [1] (FIG. 2, groups 1, 3, 4, 6, F-araAMP 90 mg/kg plus or minus anti-CTLA4-9H10, left flank tumors), the “effect on EMT-6 tumors that express E. coli PNP” value is on record as “effective”. For the same molecule, the “PNP/fludarabine phosphate treatment in combination with an anti-CTLA4 antibody” value in assay [1] (summary of FIG. 1, 2, 3) is on record as “improve”. In assay [2] (setting [3]), the “tumor growth, group 4 (anti-CTLA4 alone) versus group 6 (fludarabine 90 mg/kg + anti-CTLA4), all tumors included in the analysis” value was “not significantly different” and the “tumor growth, group 4 (anti-CTLA4 alone) versus group 6 (fludarabine 90 mg/kg + anti-CTLA4), regressed tumors removed from the analysis” value is on record as “significantly different”. The “augmentation of anti-CTLA4 antibody antitumor activity in non-PNP tumors” value in assay [2] (FIG. 3 and 5, groups 1, 3, 4, 6, F-araAMP 90 mg/kg, PNP tumor regressing contralaterally) is reported as “augments”. Further, in assay [2] (FIG. 4 and 6, groups 7-10, F-araAMP 90 mg/kg, no PNP expression in the animal), the “augmentation of anti-CTLA4 antibody activity in parental (non-PNP) tumors” value is “augments; also recorded: enhances”. In addition, the “abscopal effect on a non-PNP tumor of a contralateral PNP tumor regressing due to F-araAMP” value in assay [2] (FIG. 7) is “strong abscopal effect; also recorded: inhibits”. In addition, the “abscopal effect on a non-PNP tumor of a contralateral PNP tumor regressing due to F-araAMP” value in assay [2] (FIG. 7, listed as F-araAMP) is “abscopal effect”.

B1: E. coli PNP: E. coli purine nucleoside phosphorylase expressed in the EMT-6-PNP-EMU transduced tumor cell line (protein, UniProt P0ABP8 2-239, looked up)
Purine nucleoside …: ATPHINAEMGDFADVVLMPGDPLRAKYIAETFLEDAREVNNVRGMLGFTGTYKGRKISVMGHGMGIPSCSIYTKELITDFGVKKIIRVGSCGAVLPHVKLRDVVIGMGACTDSKVNRIRFKDHDFAAIADFDMVRNAVDAAKALGIDARVGNLFSADLFYSPDGEMFDVMEKYGILGVEMEAAGIYGVAAEFGAKALTICTVSDHIRTHEQTTAAERQTTFNDMIKIALESVLLGDKE
Regarding B1, the “effect of expressing E. coli PNP in a solid breast tumor on activity of checkpoint blockade inhibitors” value in assay [1] (summary of experiments) was “augments”. Further, the “tumor growth, group 6 (non-PNP right flank tumor, PNP tumor contralaterally) versus group 10 (right) or group 10 (left)” value in assay [2] (FIG. 7, day 15, both groups F-araAMP 90 mg/kg + anti-CTLA4-9H10) is listed as “significantly different”.
